IC50 and Ki data for 23 compounds are collected here from patent publication US20230382870A1, “N-AROMATIC AMIDE COMPOUNDS, PREPARATION METHODS AND USES THEREOF” (SHENZHEN EDK PHARMACEUTICAL TECHNOLOGY CO., LTD., priority 2021, published 2023).

Sequence of androgen receptor (P15207 whole entry S389L): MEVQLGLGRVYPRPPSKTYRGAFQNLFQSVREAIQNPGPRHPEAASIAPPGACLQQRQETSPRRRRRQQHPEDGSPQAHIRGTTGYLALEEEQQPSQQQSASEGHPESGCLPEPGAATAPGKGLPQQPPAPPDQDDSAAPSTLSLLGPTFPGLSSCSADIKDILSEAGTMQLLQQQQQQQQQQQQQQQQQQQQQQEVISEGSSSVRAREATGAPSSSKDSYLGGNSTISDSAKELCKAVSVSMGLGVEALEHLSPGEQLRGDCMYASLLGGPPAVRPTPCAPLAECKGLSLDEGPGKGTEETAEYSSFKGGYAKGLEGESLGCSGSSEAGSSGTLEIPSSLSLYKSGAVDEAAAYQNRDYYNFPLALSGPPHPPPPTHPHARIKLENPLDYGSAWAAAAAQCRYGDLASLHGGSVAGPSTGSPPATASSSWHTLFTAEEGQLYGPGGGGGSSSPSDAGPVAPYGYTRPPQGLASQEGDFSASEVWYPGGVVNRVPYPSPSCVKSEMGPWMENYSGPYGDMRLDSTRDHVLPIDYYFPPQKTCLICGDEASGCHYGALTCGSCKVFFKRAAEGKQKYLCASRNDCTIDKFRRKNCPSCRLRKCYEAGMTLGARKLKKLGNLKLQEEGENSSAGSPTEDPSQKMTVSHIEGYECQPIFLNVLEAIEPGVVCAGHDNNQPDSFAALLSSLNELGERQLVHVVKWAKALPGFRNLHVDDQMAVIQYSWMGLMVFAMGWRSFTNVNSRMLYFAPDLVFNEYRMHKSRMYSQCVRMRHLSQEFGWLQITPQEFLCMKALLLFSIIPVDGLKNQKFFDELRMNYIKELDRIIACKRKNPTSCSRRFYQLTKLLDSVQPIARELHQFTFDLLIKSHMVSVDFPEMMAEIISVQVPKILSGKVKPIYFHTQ

This test has as its target androgen receptor (Rattus norvegicus (Rat), UniProt P15207). As to the kind of experiment: Androgen receptor competition binding with radiolabeled dihydrotestosterone (hydroxyapatite separation, scintillation counting). As to conditions: androgen receptor from prostate of male SD rats; competition with radiolabeled DHT; 4 Celsius degrees, 15 hours. How it is done:
Reagents and instruments: radiolabeled dihydrotestosterone […] and unlabelled dihydrotestosterone (DHT) purchased from Sigma-Aldrich (St. Louis, Mo.), scintillation solution purchased from Perkin Elmer Life Sciences (Boston, Mass.), hydroxyapatite (HAP) suspension purchased from Bio-Rad Laboratories (Hercules, Calif.), buffer (containing 10 mM Tris, 1.5 mM disodium EDTA, 0.25 M sucrose, 10 mM sodium molybdate and 1 mM PMSF, pH value adjusted to 7.4), and hydroxyapatite (HAP) solution (containing 50 mM Tris and 1 mM KH2PO4, pH value adjusted to 7.4).
In the present invention, the biological activity of the N-aromatic amide compounds with the formula (I) and/or (II) is measured accord to the following method. […] The androgen receptor (prepared from the prostate of male SD rats, 200-250 g of male Sprague-Dawley rats) and the radiolabeled dihydrotestosterone ([…], 84 Ci/mmol) are added to the buffer and well mixed for preparing reaction solution. The concentration gradients of the diluted compounds are respectively added into the reaction solution and well mixed, and the resulting mixtures are incubated at 4 Celsius degrees for 15 hours, so that the compounds and the dihydrotestosterone can fully react with the androgen receptor. Thereafter, the hydroxyapatite (HAP) suspension is added therein, well mixed, incubated for 10 minutes at 4 Celsius degrees, and centrifuged for removing the supernatant containing free dihydrotestosterone. The dihydrotestosterone bound to the androgen receptor is adsorbed in the hydroxyapatite and thus retained in the precipitated particles, thereby separating the bound and unbound radiolabelled ligands. A scintillation solution is added to the precipitate, well mixed, and detected for the radioactivity intensity using a WALLACE MicroBeta Trilux Scintillator (Perkin Elmer).The detected radioactivity intensity values for the concentration gradients are processed to obtain values of ICso and K. The specific biological activity (the competition results between androgen receptor ligand and radioligand) is shown in the following table: […]
The term IC50 denotes the point on the concentration scale where inhibition reaches its midpoint. On to `CC(C)(C(=O)Nc1ccc(C#N)c(C(F)(F)F)c1)n1ccc2c(F)cc(-c3ccc(F)cc3)cc21` [Example 1, N-(4-cyano-3-trifluoromethyl)-phenyl-2-[4-fluoro-6-(4-fluorophenyl)-1H-indolyl-1-yl]-2-methylpropanamide], for which the concentration for half-maximal inhibition (IC50) is 0.546 µM.

In turn, `CC(C)(C(=O)Nc1ccc(C#N)c(C(F)(F)F)c1)n1ccc2cc(F)c(-c3ccccc3)cc21` [Example 2, N-(4-cyano-3-trifluoromethyl) phenyl-2-(5-fluoro-6-phenyl-1H-indolyl-1-yl)-2-methylpropanamide] yielded a half-inhibitory concentration (IC50) of 0.337 µM.

Broadly, the Ki is a dissociation constant, usually derived from enzyme kinetics or from competition with a known ligand. Read a low Ki as tighter binding. Regarding `CC(C)(C(=O)Nc1ccc(C#N)c(C(F)(F)F)c1)n1ccc2cc(F)ccc21` [Example 3, N-(4-cyano-3-trifluoromethyl)-phenyl-2-(5-fluoro-1H-indolyl-1-yl)-2-methylpropanamide], the IC50 is 0.215 µM and the Ki was 0.367 µM.

For `CC(C)(C(=O)Nc1ccc(C#N)c(C(F)(F)F)c1)n1ccc2c(F)cccc21` [Example 4, N-(4-cyano-3-trifluoromethyl)-phenyl-2-(4-fluoro-1H-indolyl-1-yl)-2-methylpropanamide], the IC50 amounted to 0.246 µM and affinity was put at a Ki of 0.491 µM.

On to `CC(C)(C(=O)Nc1ccc(C#N)c(C(F)(F)F)c1)n1ccc2ccc(F)cc21` [Example 5, N-(4-cyano-3-trifluoromethyl)-phenyl-2-(6-fluoro-1H-indolyl-1-yl)-2-methylpropanamide], for which the IC50 was 0.227 µM and the Ki came out at 0.314 µM.

Regarding `CC(C)(C(=O)Nc1ccc(C#N)c(C(F)(F)F)c1)n1ccc2cc([N+](=O)[O-])ccc21` [Example 6, N-(4-cyano-3-trifluoromethyl)-phenyl-2-(5-nitro-1H-indolyl-1-yl)-2-methylpropanamide], the half-inhibitory concentration (IC50) was determined as 0.261 µM and the Ki came out at 0.421 µM.

In turn, `CC(C)(C(=O)Nc1ccc(C#N)c(C(F)(F)F)c1)n1ccc2cc(C(F)(F)F)ccc21` [Example 8, N-(4-cyano-3-trifluoromethyl)-phenyl-2-(5-trifluoromethyl-1H-indolyl-1-yl)-2-methylpropanamide] registered a 50% inhibitory concentration (IC50) of 0.357 µM and an inhibition constant (Ki) of 0.44 µM.

`CC(C)(C(=O)Nc1ccc(C#N)c(C(F)(F)F)c1)n1ccc2cc(C#N)ccc21` [Example 9, N-(4-cyano-3-trifluoromethyl)-phenyl-2-(5-cyano-1H-indolyl-1-yl)-2-methylpropanamide] returned an IC50 of 0.232 µM and an inhibition constant Ki of 0.445 µM.

On to `CC(C)(C(=O)Nc1ccc(C#N)c(C(F)(F)F)c1)N1CCc2cc(F)ccc21` [Example 10, N-(4-cyano-3-trifluoromethyl)-phenyl-2-(5-fluoro-1H-2,3-dihydroindolyl-1-yl)-2-methylpropanamide], for which the concentration for half-maximal inhibition (IC50) turned out to be 0.437 µM and the affinity, expressed as Ki, was 0.387 µM.

For `CC(C)(C(=O)Nc1ccc(C#N)c(C(F)(F)F)c1)N1CCc2cc(F)c(F)cc21` [Example 11, N-(4-cyano-3-trifluoromethyl)-phenyl-2-(5,6-difluoro-1H-2,3-dihydroindolyl-1-yl)-2-methylpropanamide], the concentration for half-maximal inhibition (IC50) amounted to 0.505 µM and the affinity, expressed as Ki, was 0.505 µM.

The compound `CC(C)(C(=O)Nc1ccc(C#N)c(Cl)c1)n1ccc2cc(F)ccc21` [Example 12, N-(3-chloro-4-cyano) phenyl-2-(5-fluoro-1H-indolyl-1-yl)-2-methylpropanamide] came in with an IC50 of 0.205 µM and an inhibition constant (Ki) of 0.351 µM.

The compound `CC(C)(C(=O)Nc1ccc(C#N)c(C(F)(F)F)c1)n1cc(-c2ccc(F)cc2)c(F)n1` [Example 13, N-(4-cyano-3-trifluoromethyl)-phenyl-2-[3-fluoro-4-(4-fluorophenyl)-1H-pyrazolyl-1-yl]-2-methylpropanamide] showed a half-inhibitory concentration (IC50) of 0.416 µM.

Regarding `CC(C)(C(=O)Nc1ccc(C#N)c(C(F)(F)F)c1)n1cc(-c2ccc(F)cc2)cn1` [Example 14, N-(4-cyano-3-trifluoromethyl)-phenyl-2-[4-(4-fluorophenyl)-1H-pyrazolyl-1-yl]-2-methylpropanamide], the concentration for half-maximal inhibition (IC50) is 0.76 µM.

For `CC(C)(C(=O)Nc1ccc(C#N)c(C(F)(F)F)c1)n1cc(F)cn1` [Example 15, N-(4-cyano-3-trifluoromethyl)-phenyl-2-(4-fluoro-1H-pyrazolyl-1-yl)-2-methylpropanamide], the 50% inhibitory concentration (IC50) is 0.125 µM.

Regarding `CC(C)(C(=O)Nc1ccc(C#N)c(C(F)(F)F)c1)n1ccc(F)n1` [Example 16, N-(4-cyano-3-trifluoromethyl)-phenyl-2-(3-fluoro-1H-pyrazolyl-1-yl)-2-methylpropanamide], the 50% inhibitory concentration (IC50) is 0.147 µM.

`CC(C)(C(=O)Nc1ccc(C#N)c(C(F)(F)F)c1)n1cc(Cl)cn1` [Example 17, N-(4-cyano-3-trifluoromethyl)-phenyl-2-(4-chloro-1H-pyrazolyl-1-yl)-2-methylpropanamide] displayed a 50% inhibitory concentration (IC50) of 0.116 µM.

`CC(C)(C(=O)Nc1cnc(C#N)c(C(F)(F)F)c1)n1cc(F)cn1` [Example 22]: the half-maximal inhibitory concentration (IC50) amounted to 0.073 µM.

`N#Cc1ccc(NC(=O)C2(n3cc(F)cn3)CCC2)cc1C(F)(F)F` [Example 23, N-(4-cyano-3-trifluoromethyl)-phenyl-1-(4-fluoro-1H-pyrazolyl-1-yl)-cyclobutane-formamide] gave an IC50 of 0.115 µM.

`N#Cc1ncc(NC(=O)C2(n3cc(F)cn3)CCC2)cc1C(F)(F)F` [Example 24, N-(6-cyano-5-trifluoromethyl-pyridyl-3-yl)-1-(4-fluoro-1H-pyrazolyl-1-yl) -cyclobutane-formamide] displayed a 50% inhibitory concentration (IC50) of 0.068 µM. Against the preceding compound, the IC50 is about 1.7-fold lower.

`CC(C)(C(=O)Nc1ccc(C#N)c(C(F)(F)F)c1)n1cc(Br)c(F)n1` [Example 25, 2-(4-bromo-3-fluoro-1H-pyrazolyl-1-yl)-N-(4-cyano-3-trifluoromethyl)-phenyl-2-methylpropanamide] had a half-inhibitory concentration (IC50) of 0.091 µM.

In the case of `CC(C)(C(=O)Nc1ccc(C#N)c(C(F)(F)F)c1)n1cc(F)c(F)n1` [Example 26, 2-(3,4-difluoro-1H-pyrazolyl-1-yl)-N-(4-cyano-3-trifluoromethyl)-phenyl-2-methylpropanamide], the IC50 came out at 0.075 µM.

As for `CC(C)(C(=O)Nc1ccc(C#N)c(C(F)(F)F)c1)n1cc(Cl)c(F)n1` [Example 29, 2-(3-fluoro-4-chloro-1H-pyrazolyl-1-yl)-N-(4-cyano-3-trifluoromethyl)-phenyl-2-methylpropanamide], the concentration for half-maximal inhibition (IC50) was 0.105 µM.

For `CC(C)(C(=O)Nc1ccc(C#N)c(C(F)(F)F)c1)n1cc(C#N)c(Cl)n1` [Example 30, 2-(3-chloro-4-cyano-1H-pyrazolyl-1-yl)-N-(4-cyano-3-trifluoromethyl)-phenyl-2-methylpropanamide], the 50% inhibitory concentration (IC50) came out at 0.088 µM.
